Legend:
PhaCA = tested on: T1, PhaCA; test: stopped-flow CO2 hydration assay; format: biochemical, Pseudoalteromonas haloplanktis; details: activation constant (activator); CO2 substrate; TRIS pH 8.3, 0.1 M NaClO4, 25 °C; 15 min pre-incubation
T1 construct: purified recombinant gamma-class enzyme
Description: stopped-flow CO2 hydration assay on PhaCA

CpsCA = tested on: T2, CpsCA; test: stopped-flow CO2 hydration assay; format: biochemical, Colwellia psychrerythraea; details: activation constant (activator); CO2 substrate; TRIS pH 8.3, 0.1 M NaClO4, 25 °C; 15 min pre-incubation
T2 construct: purified recombinant gamma-class enzyme
Description: stopped-flow CO2 hydration assay on CpsCA

N[C@H](Cc1ccccc1)C(=O)O [compound 4, D-Phe]
KA (μM) * / PhaCA ^b (PhaCA): 3.19 µM | KA (μM) * / CpsCA ^b (CpsCA): 15.4 µM

N[C@@H](Cc1ccc(O)c(O)c1)C(=O)O [compound 5, L-DOPA]
KA (μM) * / PhaCA ^b (PhaCA): 1.08 µM | KA (μM) * / CpsCA ^b (CpsCA): 4.79 µM

N[C@H](Cc1ccc(O)c(O)c1)C(=O)O [compound 6, D-DOPA]
KA (μM) * / PhaCA ^b (PhaCA): 0.72 µM | KA (μM) * / CpsCA ^b (CpsCA): 11.2 µM

N[C@@H](Cc1c[nH]c2ccccc12)C(=O)O [compound 7, L-Trp]
KA (μM) * / PhaCA ^b (PhaCA): 7.12 µM | KA (μM) * / CpsCA ^b (CpsCA): 21.3 µM

N[C@@H](Cc1ccc(O)cc1)C(=O)O [compound 9, L-Tyr]
KA (μM) * / PhaCA ^b (PhaCA): 1.02 µM | KA (μM) * / CpsCA ^b (CpsCA): 19.5 µM

N[C@H](Cc1ccc(O)cc1)C(=O)O [compound 10, D-Tyr]
KA (μM) * / PhaCA ^b (PhaCA): 7.35 µM | KA (μM) * / CpsCA ^b (CpsCA): 18.4 µM

Nc1ccc(C[C@H](N)C(=O)O)cc1 [compound 11, 4-H2N-L-Phe]
KA (μM) * / PhaCA ^b (PhaCA): 3.27 µM | KA (μM) * / CpsCA ^b (CpsCA): 17.2 µM

NCCc1c[nH]cn1 [compound 12, Histamine]
KA (μM) * / PhaCA ^b (PhaCA): 6.48 µM | KA (μM) * / CpsCA ^b (CpsCA): 20.6 µM

NCCc1ccc(O)c(O)c1 [compound 13, Dopamine]
KA (μM) * / PhaCA ^b (PhaCA): 8.70 µM

NCc1ccccn1 [compound 15, 2-Pyridyl-methylamine]
KA (μM) * / PhaCA ^b (PhaCA): 2.39 µM | KA (μM) * / CpsCA ^b (CpsCA): 21.5 µM

N[C@H](CCC(=O)O)C(=O)O [compound 23, D-Glu]
KA (μM) * / CpsCA ^b (CpsCA): 12.0 µM

— paper PMC6520686, “Activation Studies of the γ-Carbonic Anhydrases from the Antarctic Marine Bacteria Pseudoalteromonas haloplanktis and Colwellia psychrerythraea with Amino Acids and Amines” (Marine Drugs, 2019)
